These results are taken from patent US8492560B2, “Quinazoline derivatives as angiogenesis inhibitors” (AstraZeneca AB, priority 1999, dated 2013).

In general, melting point refers to the temperature, or range, at which the solid turns liquid.

Turning to `COc1cc2c(Oc3ccc4[nH]cc(C)c4c3)ncnc2cc1OCCCN1CCCC1` [Example 179, 6-methoxy-4-(3-methylindol-5-yloxy)-7-(3-(pyrrolidin-1-yl)propoxy)quinazoline], the melting point lay within 75 to 77 °C.

`COc1cc2c(Oc3cnc4[nH]ccc4c3)ncnc2cc1OCCCN1CCCC1` [Example 182, 6-methoxy-7-(3-(pyrrolidin-1-yl)propoxy)-4-(1H-pyrrolo[2,3-b]pyridin-5-yloxy)quinazoline] yielded a melting point of 184 to 185.5 °C. Regarding `COc1cc2c(Oc3ccc4[nH]c(C)cc4c3)ncnc2cc1OCC1CCN(C)C(=O)C1` (stereo not shown) [Example 268, 6-methoxy-4-(2-methylindol-5-yloxy)-7-(1-methyl-2-oxopiperidin-4-ylmethoxy)quinazoline], the melting point lay in the range of 250 to 251 °C. As for `COc1cc2c(Oc3cccc4[nH]ccc34)ncnc2cc1OCCCN1CCCCC1` [Example 169, 4-(indol-4-yloxy)-6-methoxy-7-(3-piperidinopropoxy)quinazoline], the figure is 80 to 82 °C.
